Measurements: patent US5776940A, “Phenylxanthine derivatives” (Glaxo Wellcome Inc., priority 1994, dated 1998)

Columns and labels:
[1] = system: antigen-induced airway eosinophilia; test: Inhibition of antigen-induced airway eosinophilia in the guinea pig; type: in vivo, guinea pig (male Hartley); conditions: 24 h after antigen challenge
Protocol: 2) Compounds of the invention were assayed for inhibition of Antigen-Induced airway eosinophilia as follows:
Male Hartley guinea pigs [Crl:(HA)Br, Charles River] weighing 200-300 g were sensitized to ovalbumin (OA) by intraperitioneal (i.p.) injections (in 1 ml 0.9% saline) of 20 mg followed by 1 mg 2 or 3 days later. After four to twelve weeks, the animals were treated with the antihistamine, pyrilamine (1 mg/kg i.p), 1 hour prior to exposure (17.8 l chamber) and for 10 min to an aerosol of OA (0.5% w/v solution in 0.9% sterile saline) generated from a jet nebulizer (Devilbiss Model 40; flow rate=8.51/min). […] Twenty-four hours after antigen challenge, each animal was anesthetized with sodium pentobarbital (55-75 mg/kg i.p.), the trachea cannulated and the lungs lavaged with 4×10 ml aliquots of Hanks' Balanced Salt Solution warmed to 37° C. The aliquots were pooled in 40 ml polycarbonate centrifuge tubes, centrifuged (200 g for 10 min at 4° C.) and the cell pellet resuspended in HEPES buffered solution (2 ml). Fifty μl of the suspension were added to 10 ml of Isoton Diluent (Fisher Scientific) containing three drops of lysing agent and the cells counted with a Coulter Counter (Model ZB1). Four μl of the cell suspension were spread on a 3×1 inch glass microscope slide, allowed to dry and the cells stained with DIFF-QUIK™ (Fisher Scientific). Two slides were prepared for each animal. Differential cell counts were made (100× magnification) from a minimum of four fields on 100 cells per slide (total cells counted per animal=200), using standard morphological criteria to classic cells into eosinophils, neutrophils, lymphocytes and macrophages. The activity of the test compound was calculated by comparing the mean proportions of eosinophils in the lavage fluid of compound-treated animals with controls (vehicle-treated animals) and expressing as percent inhibition.

[2] = system: arachidonate cyclooxygenase; test: Arachidonate metabolism: cyclooxygenase inhibition in rat pleural exudate cells; type: cell-based, rat (Harlan Sprague-Dawley male); conditions: ionophore A23187, 10 μM arachidonate, 37° C., read-out: Enzymes IC50 CO
Protocol: (§1) Compounds of the invention were assayed for inhibiting activity in arachidonate metabolism and PAF synthesis as follows.
(§2) A) Arachidonate Metabolism
(§3) Arachidonate cyclooxygenase, 5-lipoxygenase, and thromboxane synthetase were assayed as described in White et al, Prostaglandins, Leukotrienes and Medicine, 1985; 20: p 1-9. Pleural exudate cells were harvested from Harlan Sprague-Dawley male rats (150±20 g) 3 hr after intrapleural injection of 0.5 mg carrageenan. Cell counts were obtained from pooled exudates, which were then centrifuged at 200 g (10 min, 4° C.) and resuspended at 15 million cells/ml in 0.13M NaCl, 15 mM Tris-Cl, 5 mM glucose, pH 7.4. Portions of this cell suspension (3 million cells per assay) were preincubated with and without compound being tested for 5 min at 37° C. in 50 mM Tris-Cl, 1 mM CaCl2, pH 7.4. Ionophore A23187 (3 μM) and [^14 C]arachidonate (to give 10 μM; 55 Ci/mol) were then added in a total assay volume of 400 μl, and incubation was continued for 2 min at 37° C. Blank assays were performed using sonicated cells with 0.1 mM 3-amino-1-m-trifluoromethylphenyl pyrazol-2-ine, an inhibitor of cyclooxygenase and lipoxygenase pathways. After incubation, reaction mixtures were acidified with 20 μl of 2N HCl and extracted with 4 ml diethyl ether. Ether extracts were dried under nitrogen, resuspended in ethyl acetate, and chromatographed on Whatman LK5D silica gel G plates, using ethyl acetate/isooctane/acetic acid/water (9/5/2/10; vols; top layer after 5 min shaking). Thin layer plates were exposed to Kodak SB-5 X-ray film to produce autoradiogran. [^14 C]DPM in products were obtained by scraping appropriate regions of TLC plates and counting in a scintillation spectrometer. Effects on the 5-lipoxygenase pathway were estimated by counting 5-HETE and 5,12-diHETE (LTB4). Cyclooxygenase and thromboxane synthetase inhibition were estimated by counting thromboxane B2 and prostaglandin E2 or F2 α. Selective thromboxane inhibitors will decrease thromboxane B2 and increase PGE2 and PGF2 α. Cyclooxygenase inhibitors will inhibit the formation of all three products.

[3] = biological target: T1, arachidonate 5-lipoxygenase (Rattus norvegicus, UniProt P12527); test: Arachidonate metabolism: 5-lipoxygenase inhibition in rat pleural exudate cells; type: cell-based, rat (Harlan Sprague-Dawley male); conditions: ionophore A23187, 10 μM arachidonate, 37° C., read-out: Enzymes IC50 5-LO
T1 construct: endogenous in cells; host or cells: pleural exudate cells of male Harlan Sprague-Dawley rats, 3 hr after intrapleural carrageenan
T1 sequence (P12527 1-673): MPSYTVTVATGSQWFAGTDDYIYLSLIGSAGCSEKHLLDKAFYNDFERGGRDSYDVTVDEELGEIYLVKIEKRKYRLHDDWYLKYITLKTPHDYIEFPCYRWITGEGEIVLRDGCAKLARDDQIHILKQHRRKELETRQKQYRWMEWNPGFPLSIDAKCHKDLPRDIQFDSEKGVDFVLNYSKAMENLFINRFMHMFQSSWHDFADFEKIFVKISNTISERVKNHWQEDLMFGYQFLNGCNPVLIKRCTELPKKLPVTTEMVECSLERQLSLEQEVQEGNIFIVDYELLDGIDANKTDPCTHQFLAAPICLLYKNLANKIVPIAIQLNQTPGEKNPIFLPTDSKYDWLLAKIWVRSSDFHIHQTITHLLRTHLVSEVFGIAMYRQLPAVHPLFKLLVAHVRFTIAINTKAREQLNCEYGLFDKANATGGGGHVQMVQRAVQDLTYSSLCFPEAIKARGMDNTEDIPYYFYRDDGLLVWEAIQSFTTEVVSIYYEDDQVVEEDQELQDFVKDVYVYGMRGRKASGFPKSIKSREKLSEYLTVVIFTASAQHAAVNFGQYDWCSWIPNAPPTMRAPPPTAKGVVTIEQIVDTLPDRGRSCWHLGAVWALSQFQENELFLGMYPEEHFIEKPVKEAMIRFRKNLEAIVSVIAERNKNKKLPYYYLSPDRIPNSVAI
Protocol: as §1, §2, §3

[4] = system: C. parvum/LPS septic shock in mice; test: In vivo Septic Shock model C. parvum/LPS Shock; design: species or system mouse (male CD-1); conditions: for % Survival After 48 hr / Alive/Total at 3 hr / Alive/Total at 48 hr: schedule -2,0 hr
Protocol: 3) In vivo Septic Shock model C. parvum/LPS Shock
Male CD-1 mice, 25-30 g (Charles River: Raleigh, N.C.), are injected intravenously (i.v.) with 100 μg killed C. parvum (Coparvax; Burroughs Wellcome, RTP, NC). Nine or ten days later the mice are injected i.v. with 20 μg E. coli 026:B6 lipopolysaccharide (LPS; Difco Labs, Detroit, Mich.) in the presence of the analgesic butorphanol (150 μg per mouse). (E)-4-(1,3-bis(cyclohexylmethyl)-1, 2, 3, 6-tetrahydro-2, 6dioxo-9H-purin-8-yl)cinnamic acid was dissolved in ENCAPSIN (hydroxypropyl-β-cyclodextrin) for i.v. dosing before, at the same time as, and after the endotoxin. Control (untreated) animals go into shock within the first 90 min following LPS administration, and approximately 50% die within 3-5 hr. Mice are monitored for the first 7 hr and at 24 and 48 hr for survival.
(E)-4-(1,3-bis(cyclohexylmethyl)-1, 2, 3, 6-tetrahydro-2, 6-dioxo-9H-purin-8-yl) cinnamic acid was administered at 0.001 to 80 mg/kg i.v. in the Septic Shock model described above.

[5] = biological target: T2, lyso-PAF: acetyl-CoA acetyltransferase (Rattus norvegicus, UniProt P0C1Q3); test: Lyso-PAF: Acetyl-CoA Acetyltransferase [Synthesis of Platelet-Activating Factor (PAF)] in a lysate of rat pleural neutrophils; type: biochemical, rat (male Harlan Sprague-Dawley); conditions: lysate of activated rat pleural neutrophils, pH 6.9, 37° C., 10 min; read-out: Enzymes IC50 PAF
T2 construct: measured in a lysate of rat pleural neutrophils; endogenous in cells
T2 sequence (P0C1Q3 1-544): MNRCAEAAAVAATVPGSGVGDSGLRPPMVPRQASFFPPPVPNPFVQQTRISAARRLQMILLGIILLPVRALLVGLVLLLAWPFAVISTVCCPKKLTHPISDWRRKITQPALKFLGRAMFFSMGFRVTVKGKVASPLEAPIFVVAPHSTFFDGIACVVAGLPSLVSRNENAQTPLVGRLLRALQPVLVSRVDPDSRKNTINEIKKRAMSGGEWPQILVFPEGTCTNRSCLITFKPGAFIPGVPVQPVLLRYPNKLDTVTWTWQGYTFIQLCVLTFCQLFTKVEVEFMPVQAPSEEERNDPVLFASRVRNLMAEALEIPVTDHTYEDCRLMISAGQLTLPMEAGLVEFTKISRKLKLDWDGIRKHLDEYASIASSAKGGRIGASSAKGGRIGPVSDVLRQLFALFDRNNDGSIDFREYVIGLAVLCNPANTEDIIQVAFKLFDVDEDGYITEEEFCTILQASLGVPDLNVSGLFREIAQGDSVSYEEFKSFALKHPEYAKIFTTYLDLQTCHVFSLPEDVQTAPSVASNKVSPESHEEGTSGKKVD
Protocol: as §1
B) Lyso-PAF: Acetyl-CoA Acetyltransferase [Synthesis of Platelet-ActivatingFactor (PAF)]
Synthesis of PAF (platelet-activating factor) was measured in a lysate of rat pleural neutrophils, as described by White and Faison, Prostaglandins,1988; 35: p939-44. Pleural exudate cells, harvested from male Harlan Sprague-Dawley rats (150±20 g) 3 hr after injection of 0.5 mg carrageenan, were centrifuged at 200 g for 10 min at 4° C., washed, and resuspended at approximately 17 million cells/mi in a buffer consisting of 50 mM potassium phosphate, 144 mM NaCl, 6 mM KCl, 5 mM glucose, 1 mM MgCl2, 1.3 mM CaCl2, pH 7.4. Resuspended cells were incubated with calcium ionophore A23187 (1 μM) for 5 min at 37° C. to activate the acetyltransferase and then centrifuged at 755 g for 2 min at 4° C. Pellets were resuspended in cold distilled water and sonicated in a 50 Hz ultrasonic bath. Portions (250 μl) of the resulting lysate were mixed with buffer, test compound, and substrates to give 36 mM Tris-Cl, pH 6.9, 12 μM lyso-PAF, and 2.3 μM [^14 C]acetyl-CoA (0.06 μCi) in a total volume of 500 μl. Blank assays contained nonactivated neutrophils and no added lyso-PAF. The compound being tested was added prior to substrates. After incubation at 37° C. for 10 min. 0.68 ml of 2N HCl and 2.53 ml of 1:1 chloroform/methanol were added to each tube to extract labeled PAF. Each tightly-covered tube was briefly sonicated in a Branson 50 Hz bath, vortexed for 20 sec, and centrifuged at 160 g for 5 min to separate solvent phases. A 0.90 ml aliquot of the lower (organic)phase was pipetted into a glass scintillation vial, dried under nitrogen using an N-EVAP apparatus (Organomation Associates), and counted using scintillation techniques.

## O=C(O)/C=C/c1ccc(-c2nc3c(=O)n(CC4CCCCC4)c(=O)n(CC4CCCCC4)c3[nH]2)cc1 [Example 1, (E)-4-[1,3 Bis(cyclohexylmethyl)-1,2,3,6-tetrahydro-2,6-dioxo-9H-purin-8-yl]cinnamic Acid]
[1]; dose 5 mg/kg ip
  Inhibition of Airway Eosinophilia (% inhibition): 50%
[2]
  IC50: 0.1 µM
[3]
  IC50: 0.3 µM
[4]; 0.001 mg/kg i.v.
  % Survival After 48 hr: 13%
  Alive/Total at 3 hr: 6/8
  Alive/Total at 48 hr: 1/8
[4]; 0.01 mg/kg i.v.
  % Survival After 48 hr: 13%
  Alive/Total at 3 hr: 7/8
  Alive/Total at 48 hr: 1/8
[4]; 0.1 mg/kg i.v.
  % Survival After 48 hr: 50%
  Alive/Total at 3 hr: 6/8
  Alive/Total at 48 hr: 4/8
[4]; 1.0 mg/kg i.v.
  % Survival After 48 hr: 88%
  Alive/Total at 3 hr: 6/8
  Alive/Total at 48 hr: 7/8
[4]; 0.001 to 80 mg/kg i.v., administered 2 hr before and at the time of LPS
  protection (decreasing mortality): greater than 50%
[4]; 5.0 mg/kg i.v.
  % Survival After 48 hr: 75%
  Alive/Total at 3 hr: 7/8
  Alive/Total at 48 hr: 6/8
[4]; 10 mg/kg i.v.
  % Survival After 48 hr: 75%
  Alive/Total at 3 hr: 8/8
  Alive/Total at 48 hr: 6/8
[4]; 20 mg/kg i.v.
  % Survival After 48 hr: 75%
  Alive/Total at 3 hr: 8/8
  Alive/Total at 48 hr: 6/8
[4]; 40 mg/kg i.v.
  % Survival After 48 hr: 75%
  Alive/Total at 3 hr: 7/8
  Alive/Total at 48 hr: 6/8
[4]; 60 mg/kg i.v.
  % Survival After 48 hr: 75%
  Alive/Total at 3 hr: 7/8
  Alive/Total at 48 hr: 6/8
[4]; 80 mg/kg i.v.
  % Survival After 48 hr: 63%
  Alive/Total at 3 hr: 7/8
  Alive/Total at 48 hr: 5/8
[5]
  IC50: 2.5 µM

## O=C(O)/C=C/c1ccc(-c2nc3c(=O)n(CC4CCCC4)c(=O)n(CC4CCCC4)c3[nH]2)cc1 [Example 4, (E)-4-[1,3 Bis(cyclopentylmethyl)-1,2,3,6-tetrahydro-2,6-dioxo-9H-purin-8-yl]cinnamicAcid]
[1]; dose 10 mg/kg ip
  Inhibition of Airway Eosinophilia (% inhibition): 46%
[2]
  IC50: 5 µM
[3]
  IC50: 6 µM
[5]
  IC50: 15 µM

## O=C(O)/C=C/c1ccc(-c2nc3c(=O)n(CC4CCCCCC4)c(=O)n(CC4CCCCCC4)c3[nH]2)cc1 [Example 7, (E)-4-[1,3 Bis(cycloheptylmethyl)-1,2,3,6-tetrahydro-2,6-dioxo-9H-purin-8-yl]cinnamicAcid]
[1]; dose 6.8 mg/kg ip
  Inhibition of Airway Eosinophilia (% inhibition): 50%
[2]
  IC50: 4 µM
[3]
  IC50: 1.5 µM
[5]
  IC50: 12 µM
